In the SangsterLogP compilation:

assay: method code SF-AS, from Woolston, C.; Lee, J.; Swinbourne, F. (1994). Partition coefficients and chromatographic parameters of some substituted 1,3-thiazolidin-4-ones. Ind. J. Chem., Sect. B, 33(6)590-592.; details: pH 7.4

| logD | Compound |
| --- | --- |
| 1.23 | O=C1CS(=O)(=O)C(c2ccccc2)N1c1ccccc1 (stereo not drawn) |

assay: not given; details: not given

| Compound | logP |
| --- | --- |
| O=C1CSC(c2cccc(F)c2)N1c1ccccc1 (stereo not drawn) | 1.9 |
| O=C1CSC(c2cccc([N+](=O)[O-])c2)N1c1ccccc1 (stereo not drawn) | 1.73 |
| O=C1CS(=O)(=O)C(c2cccc(Br)c2)N1c1ccccc1 (stereo not drawn) | 1.63 |
| O=C1CS(=O)C(c2ccccc2)N1c1ccccc1 (stereo not drawn) | 1.07 |
| COc1ccc(N2C(=O)CS(=O)(=O)C2c2ccccc2)cc1 (stereo not drawn) | 1.09 |
| O=C1CSC(c2ccccc2)N1c1cccc(Br)c1 (stereo not drawn) | 2.58 |
| O=C1CS(=O)C(c2cccc(Br)c2)N1c1ccccc1 (stereo not drawn) | 1.63 |
| O=C1CSC(c2cccc(Cl)c2)N1c1ccccc1 (stereo not drawn) | 2.32 |
| O=C1CSC(c2ccccc2)N1c1cccc([N+](=O)[O-])c1 (stereo not drawn) | 1.9 |
| COc1cccc(C2SCC(=O)N2c2ccccc2)c1 (stereo not drawn) | 1.96 |
| COc1ccc(N2C(=O)CS(=O)C2c2ccccc2)cc1 (stereo not drawn) | 1.07 |
| O=C1CS(=O)(=O)C(c2ccccc2)N1c1cccc([N+](=O)[O-])c1 (stereo not drawn) | 1.09 |
| O=C1CS(=O)C(c2ccccc2)N1c1cccc([N+](=O)[O-])c1 (stereo not drawn) | 1.09 |

The next lines start with the values.

| logP | Compound |
| --- | --- |
| 1.75 | O=C1CSC(c2ccc([N+](=O)[O-])cc2)N1c1ccccc1 (stereo not drawn) |
| 2.32 | Cc1ccc(N2C(=O)CSC2c2ccccc2)cc1 (stereo not drawn) |
| 1.88 | O=C1CSC(c2ccccc2)N1c1ccccc1 (stereo not drawn) |
| 1.32 | N#Cc1ccc(C2SCC(=O)N2c2ccccc2)cc1 (stereo not drawn) |
| 1.97 | COc1ccc(C2SCC(=O)N2c2ccccc2)cc1 (stereo not drawn) |
| 2.42 | O=C1CSC(c2ccccc2)N1c1ccc(Cl)cc1 (stereo not drawn) |
| 2.52 | O=C1CSC(c2ccc(Cl)cc2)N1c1ccccc1 (stereo not drawn) |
| 2.66 | O=C1CSC(c2ccc(Br)cc2)N1c1ccccc1 (stereo not drawn) |
| 2.48 | Cc1ccc(C2SCC(=O)N2c2ccccc2)cc1 (stereo not drawn) |
| 2.56 | O=C1CSC(c2ccccc2)N1c1ccc(Br)cc1 (stereo not drawn) |
| 1.92 | COc1ccc(N2C(=O)CSC2c2ccccc2)cc1 (stereo not drawn) |
| 2.3 | Cc1cccc(C2SCC(=O)N2c2ccccc2)c1 (stereo not drawn) |
| 1.29 | O=C1CSC(c2ccccc2)N1c1ccc(O)cc1 (stereo not drawn) |
| 2.44 | O=C1CSC(c2cccc(Br)c2)N1c1ccccc1 (stereo not drawn) |
